US9144239B2, “Macrocyclic picolinamides as fungicides” (DOW AGROSCIENCES LLC, priority 2012, dated 2015)
Where two headings read alike, the source gives them in different places.

How the values were obtained:
Format in all cases: in vivo
[1] = test system: Puccinia triticina; synonym: Puccinia recondita f. sp. tritici; experiment: Fungicidal activity: wheat brown rust (PUCCRT), wheat seedlings; settings: 100 ppm, wheat
Summary of the method: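 Wheat (Yuma) seedlings at first-leaf stage, inoculated with Puccinia triticina spores before or after treatment, held overnight in dark dew room at 22° C, 100% RH, then greenhouse at 24° C. Acetone solutions diluted with nine volumes water containing 110 ppm Triton X-100, sprayed to run-off. Percent disease control derived from severity (0–100%) relative to untreated plants.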

[2] = test system: Magnaporthe grisea; anamorph: Pyricularia oryzae; experiment: whole plant or invertebrate; settings: 24 h, read-out: Disease Control PYRIOR 1 DP
Uncinula necator = experiment: Fungicidal activity: grape powdery mildew (UNCINE); settings: Erysiphe necator, 24 h, 1 Day Protectant, read-out: Disease Control UNCINE 1 DP
Experimental: Technical grades of materials were dissolved in acetone, which were then mixed with nine volumes of water containing 110 ppm Triton X-100. The fungicide solutions were applied onto wheat seedlings using an automated booth sprayer to run-off. All sprayed plants were allowed to air dry prior to further handling. Wheat plants (variety Yuma) were grown from seed in a greenhouse in 50% mineral soil/50% soil-less Metro mix until the first leaf was fully emerged, with 7-10 seedlings per pot. These plants were inoculated with an aqueous spore suspension of Septoria tritici either prior to or after fungicide treatments. After inoculation the plants were kept in 100% relative humidity (one day in a dark dew chamber followed by two to three days in a lighted dew chamber at 20° C.) to permit spores to germinate and infect the leaf. The plants were then transferred to a greenhouse set at 20° C. for disease to develop. When disease symptoms were fully expressed on the 1st leaves of untreated plants, infection levels were assessed on a scale of 0 to 100 percent disease severity. Percent disease control was calculated using the ratio of disease severity on treated plants relative to untreated plants. Evaluation of Fungicidal Activity: Grape Powdery Mildew (Uncinula necator; Bayer Code […]) Grape seedlings (variety Carignane) were grown in soil-less Metro mix, with one plant per pot, and used in the test when approximately one month old. Plants were inoculated 24 hr after fungicide treatment by shaking spores from infected leaves over test plants. Plants were maintained in a greenhouse set at 20° C. until disease was fully developed. Fungicide formulation, application and disease assessment on the sprayed leaves followed the procedures as described in the Example A.

Alternaria solani = experiment: Fungicidal activity: tomato early blight (ALTESO); settings: 24 h, 1 Day Protectant, read-out: Disease Control ALTESO 1DP
Experimental: Technical grades of materials were dissolved in acetone, which were then mixed with nine volumes of water containing 110 ppm Triton X-100. The fungicide solutions were applied onto wheat seedlings using an automated booth sprayer to run-off. All sprayed plants were allowed to air dry prior to further handling. Wheat plants (variety Yuma) were grown from seed in a greenhouse in 50% mineral soil/50% soil-less Metro mix until the first leaf was fully emerged, with 7-10 seedlings per pot. These plants were inoculated with an aqueous spore suspension of Septoria tritici either prior to or after fungicide treatments. After inoculation the plants were kept in 100% relative humidity (one day in a dark dew chamber followed by two to three days in a lighted dew chamber at 20° C.) to permit spores to germinate and infect the leaf. The plants were then transferred to a greenhouse set at 20° C. for disease to develop. When disease symptoms were fully expressed on the 1st leaves of untreated plants, infection levels were assessed on a scale of 0 to 100 percent disease severity. Percent disease control was calculated using the ratio of disease severity on treated plants relative to untreated plants. Evaluation of Fungicidal Activity: Tomato Early Blight (Alternaria solani; Bayer Code […]) Tomato plants (variety Outdoor girl) were propagated in soil-less Metro mix, with each pot having one plant, and used when 12 to 14 days old. Test plants were inoculated with an aqueous spore suspension of Alternaria solani 24 hr after fungicide treatments. After inoculation the plants were kept in 100% relative humidity (one day in a dark dew chamber followed by two to three days in a lighted dew chamber at 20° C.) to permit spores to germinate and infect the leaf. The plants were then transferred to a growth room at 22° C. for disease to develop. Fungicide formulation, application and disease assessment on the sprayed leaves followed the procedures as described in the Example A.

[3] = 24 h, 1 Day Protectant, read-out: Disease Control PUCCRT 1DP
[4] = 72 h, 3 Day Curative, read-out: Disease Control PUCCRT 3DC

Row | Structure (SMILES) | pest or weed control at 100 ppm [1, 3] [%] | pest or weed control at 100 ppm [1, 4] [%] | pest or weed control at 100 ppm [2] [%] | pest or weed control at 100 ppm (Uncinula necator) [%] | pest or weed control at 100 ppm (Alternaria solani) [%]
1 | CCCCO[C@H]1COC[C@H](NC(=O)c2nccc(OC)c2OCOC(C)=O)C(=O)O[C@@H](C)[C@@H]1OCCOC [Compound 54] | 80 to 100 | 80 to 100 | 0 to 80 | 0 to 80 | 
2 | CCCO[C@H]1COC[C@H](NC(=O)c2nccc(OC)c2OCOC(C)=O)C(=O)O[C@@H](C)[C@@H]1Oc1ccccc1 [Compound 221] | 80 to 100 | 80 to 100 | 80 to 100 |  | 
3 | COc1ccnc(C(=O)N[C@H]2COC[C@H](Oc3ccc(F)cc3)[C@@H](Oc3ccc(F)cc3)[C@H](C)OC2=O)c1OC(C)=O [Compound 229, 2-(((3S,7S,8S,9S)-7,8-bis(4-fluorophenoxy)-9-methyl-2-oxo-1,5-dioxonan-3-yl)carbamoyl)-4-methoxypyridin-3-yl acetate] |  |  | 80 to 100 | 80 to 100 | 0 to 80
4 | CCC(C)(C)O[C@H]1COC[C@H](NC(=O)c2nccc(OC)c2OCOC(C)=O)C(=O)O[C@@H](C)[C@@H]1OCC(C)C [Compound 78] | 80 to 100 | 80 to 100 | 80 to 100 | 80 to 100 | 0 to 80
5 | COc1ccnc(C(=O)N[C@H]2COC[C@H](OC)[C@@H](OC)[C@H](C)OC2=O)c1OCOC(C)=O [Compound 65] |  | 0 to 80 |  | 0 to 80 | 
6 | COc1ccnc(C(=O)N[C@H]2COC[C@H](Oc3ccccc3)[C@@H](Oc3ccccc3)[C@H](C)OC2=O)c1OCOC(C)=O [Compound 84] | 80 to 100 | 80 to 100 | 80 to 100 | 0 to 80 | 0 to 80
7 | CCCO[C@H]1[C@H](C)OC(=O)[C@@H](NC(=O)c2nccc(OC)c2OCOC(C)=O)COC[C@@H]1Oc1ccccc1 [Compound 222] | 80 to 100 | 80 to 100 | 80 to 100 |  | 0 to 80
8 | COc1ccnc(C(=O)N[C@H]2COC[C@H](OCC(C)C)[C@@H](OCC(C)C)[C@H](C)OC2=O)c1OCOC(C)=O [Compound 3, (2-((3S,7S,8S,9S)-7,8-diisobutoxy-9-methyl-2-oxo-1,5-dioxonan-3-ylcarbamoyl)-4-methoxypyridin-3-yloxy)methyl] | 80 to 100 | 80 to 100 | 80 to 100 | 80 to 100 | 0 to 80
9 | COc1ccnc(C(=O)N[C@H]2COC[C@H](OCC(C)C)[C@@H](OC3CCCCC3)[C@H](C)OC2=O)c1OCOC(C)=O [Compound 77] | 80 to 100 | 80 to 100 | 80 to 100 | 80 to 100 | 0 to 80
10 | COc1ccnc(C(=O)N[C@H]2COC[C@H](Oc3ccccc3)[C@@H](OCC(C)C)[C@H](C)OC2=O)c1OCOC(C)=O [Compound 86] | 80 to 100 | 80 to 100 | 80 to 100 | 80 to 100 | 80 to 100
11 | COc1ccnc(C(=O)NC2COC[C@H](OCc3ccccc3)[C@@H](OCc3ccccc3)[C@H](C)OC2=O)c1OCOC(C)=O (some centres unmarked) [Compound 12] | 80 to 100 | 80 to 100 | 80 to 100 | 0 to 80 | 0 to 80
12 | COc1ccnc(C(=O)N[C@H]2COC[C@H](OCCCC(F)(F)F)[C@@H](OCCCC(F)(F)F)[C@H](C)OC2=O)c1OCOC(C)=O [Compound 68] | 80 to 100 | 80 to 100 | 80 to 100 | 0 to 80 | 0 to 80
13 | COc1ccnc(C(=O)N[C@H]2COC[C@H](OC(=O)C(C)C)[C@@H](OC(=O)C(C)C)[C@H](C)OC2=O)c1OCOC(C)=O [Compound 57] | 80 to 100 | 80 to 100 | 80 to 100 | 0 to 80 | 0 to 80
14 | CCCCO[C@H]1COC[C@H](NC(=O)c2nccc(OC)c2OCOC(C)=O)C(=O)O[C@@H](C)[C@@H]1OCC(F)F [Compound 55] | 80 to 100 | 80 to 100 | 80 to 100 | 0 to 80 | 
15 | COc1ccnc(C(=O)N[C@H]2COC[C@H](OCCCc3ccccc3)[C@@H](OCCCc3ccccc3)[C@H](C)OC2=O)c1OCOC(C)=O [Compound 60] | 80 to 100 | 80 to 100 | 80 to 100 |  | 0 to 80
16 | COc1ccnc(C(=O)N[C@H]2COC[C@H](OCC(C)C)[C@@H](OCC(C)C)[C@H](C)OC2=O)c1OCOC(=O)C(C)C [Compound 2] | 80 to 100 | 80 to 100 |  |  | 
17 | COc1ccnc(C(=O)N[C@H]2COC[C@H](Oc3ccc(F)cc3)[C@@H](Oc3ccc(F)cc3)[C@H](C)OC2=O)c1OCOC(C)=O [Compound 231] |  |  | 80 to 100 | 80 to 100 | 0 to 80
18 | COc1ccnc(C(=O)N[C@H]2COC[C@H](OCC(C)C)[C@@H](Oc3ccccc3)[C@H](C)OC2=O)c1OCOC(C)=O [Compound 85] | 80 to 100 | 80 to 100 | 80 to 100 | 80 to 100 | 0 to 80
